Source: ChEMBL document CHEMBL1201862, “PubChem BioAssay data set” (2004)
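How tested: cells in 96-well plates exposed to compound for 48 hours at five concentrations. GI50 marks 50% less growth.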 The source made the active and inactive calls. Rule as the data show it: active = GI50 up to about 1.1 µM and inactive = higher.

Tests used:
Assay in all cases: NCI anticancer screen, dose series, 48 h
NCI-H522 = test system: NCI-H522
SF-539 = test system: SF-539
SNB-19 = test system: SNB-19
KM12 = test system: KM12
K562 = test system: K562
NCI-H460 = test system: NCI-H460
HCT-116 = test system: HCT-116
COLO 205 = test system: COLO 205
MDA-MB-435 = test system: MDA-MB-435
HOP-92 = test system: HOP-92
PC-3 = test system: PC-3
HOP-62 = test system: HOP-62
LOX IMVI = test system: LOX IMVI
NCI/ADR-RES = test system: NCI/ADR-RES
OVCAR-3 = test system: OVCAR-3
DU-145 = test system: DU-145
NCI-H226 = test system: NCI-H226
OVCAR-4 = test system: OVCAR-4
SK-MEL-2 = test system: SK-MEL-2

Compound	GI50 (NCI-H522)	GI50 (SF-539)	GI50 (SNB-19)	GI50 (KM12)	GI50 (K562)	GI50 (NCI-H460)	GI50 (HCT-116)	GI50 (COLO 205)	GI50 (MDA-MB-435)	GI50 (HOP-92)	GI50 (PC-3)	GI50 (HOP-62)	GI50 (LOX IMVI)	GI50 (NCI/ADR-RES)	GI50 (OVCAR-3)	GI50 (DU-145)	GI50 (NCI-H226)	GI50 (OVCAR-4)	GI50 (SK-MEL-2)
S=C(N/N=C\C=N/NC(=S)N1CCCCC1)N1CCCCC1	0.608 µM (active)	0.435 µM (active)	0.41 µM (active)	0.54 µM (active)	0.547 µM (active)	< 0.0151 µM (active)	0.124 µM (active)	0.592 µM (active)	1.01 µM (active)	3.23 µM (inactive)	0.387 µM (active)	0.203 µM (active)	0.32 µM (active)	0.267 µM (active)	0.251 µM (active)	0.202 µM (active)	0.489 µM (active)		
CCOC(=O)c1[nH]cc(C)c1-c1cccn1-c1ccc(Cl)cc1[N+](=O)[O-]	14 µM (inactive)	19.2 µM (inactive)		20.1 µM (inactive)	22.6 µM (inactive)	18.8 µM (inactive)	16.7 µM (inactive)	17.8 µM (inactive)	19.6 µM (inactive)	17.9 µM (inactive)	20.1 µM (inactive)	18.6 µM (inactive)	17.5 µM (inactive)	17.5 µM (inactive)	12 µM (inactive)	35.1 µM (inactive)	16.7 µM (inactive)	32.5 µM (inactive)	15.9 µM (inactive)
COc1cc(COC(=O)N(C)[C@@H](Cc2ccccc2)C(=O)O)c([N+](=O)[O-])cc1OC		> 100 µM (inactive)	> 100 µM (inactive)	> 100 µM (inactive)	> 100 µM (inactive)	> 100 µM (inactive)	> 100 µM (inactive)		> 100 µM (inactive)	> 100 µM (inactive)	> 100 µM (inactive)	> 100 µM (inactive)		> 100 µM (inactive)	> 100 µM (inactive)	> 100 µM (inactive)	> 100 µM (inactive)		
CCCCc1ccc(NC(=N)N)cc1	28.1 µM (inactive)	> 10 µM (inactive)	40.6 µM (inactive)	18.9 µM (inactive)	12.6 µM (inactive)	20.2 µM (inactive)	24.9 µM (inactive)	19 µM (inactive)	40.1 µM (inactive)	28.7 µM (inactive)	23.8 µM (inactive)		40 µM (inactive)	29.9 µM (inactive)	24.5 µM (inactive)	41.4 µM (inactive)	23.7 µM (inactive)	25.4 µM (inactive)	47.6 µM (inactive)
O=C(O)c1cccc(/C=C/c2ccccc2)c1	> 100 µM (inactive)	> 100 µM (inactive)	> 100 µM (inactive)	> 100 µM (inactive)		> 100 µM (inactive)	> 100 µM (inactive)	> 100 µM (inactive)	> 100 µM (inactive)	> 100 µM (inactive)	> 100 µM (inactive)	> 100 µM (inactive)	> 100 µM (inactive)	> 100 µM (inactive)	> 100 µM (inactive)	3.08 µM (inactive)	> 100 µM (inactive)	> 100 µM (inactive)	> 100 µM (inactive)
O/N=N/c1ccc(-c2ccccc2)cn1	18.8 µM (inactive)	17.4 µM (inactive)	18.1 µM (inactive)	33.9 µM (inactive)	19.6 µM (inactive)	6.25 µM (inactive)	9.08 µM (inactive)	15 µM (inactive)	14.7 µM (inactive)	1.32 µM (inactive)	7.4 µM (inactive)	3.45 µM (inactive)	6.21 µM (inactive)	8.77 µM (inactive)	20.2 µM (inactive)	2.22 µM (inactive)	17.9 µM (inactive)	23.3 µM (inactive)	31.6 µM (inactive)
O=C(O)C(Cc1ccccc1)N1C(=O)c2ccccc2C1=O (stereo unspecified)	> 100 µM (inactive)	> 100 µM (inactive)	> 100 µM (inactive)	> 100 µM (inactive)	> 100 µM (inactive)	> 100 µM (inactive)	> 100 µM (inactive)	> 100 µM (inactive)	> 100 µM (inactive)	29.2 µM (inactive)	> 100 µM (inactive)	> 100 µM (inactive)	> 100 µM (inactive)	> 100 µM (inactive)	> 100 µM (inactive)	> 100 µM (inactive)	> 100 µM (inactive)	> 100 µM (inactive)	> 100 µM (inactive)
COc1c(O)c(OC)c(C(=O)/C=C/c2ccccc2)c(O)c1OC [PEDICIN]	16 µM (inactive)	30.5 µM (inactive)	92 µM (inactive)	30.3 µM (inactive)	40.6 µM (inactive)	19.1 µM (inactive)	17.7 µM (inactive)	41.7 µM (inactive)	27.9 µM (inactive)	21.2 µM (inactive)	41.6 µM (inactive)		30.3 µM (inactive)	18.2 µM (inactive)	22.2 µM (inactive)	29.1 µM (inactive)	29.4 µM (inactive)	27.9 µM (inactive)	24.9 µM (inactive)
